# Results reported in patent US20250163038A1, “CBL-B MODULATORS AND USES THEREOF” (Nimbus Clio, Inc., priority 2021, published 2025).
# What was measured:
# [1] = molecular target: T1, Recombinant human c-Cbl (aa 47-435) (Homo sapiens, UniProt P22681); assay: c-Cbl Biochemical Assay (TR-FRET); conditions: hc-Cbl Biochemical Assay (TR-FRET); read-out: TR-FRET hcCbl IC50
# T1 sequence (P22681 47-435): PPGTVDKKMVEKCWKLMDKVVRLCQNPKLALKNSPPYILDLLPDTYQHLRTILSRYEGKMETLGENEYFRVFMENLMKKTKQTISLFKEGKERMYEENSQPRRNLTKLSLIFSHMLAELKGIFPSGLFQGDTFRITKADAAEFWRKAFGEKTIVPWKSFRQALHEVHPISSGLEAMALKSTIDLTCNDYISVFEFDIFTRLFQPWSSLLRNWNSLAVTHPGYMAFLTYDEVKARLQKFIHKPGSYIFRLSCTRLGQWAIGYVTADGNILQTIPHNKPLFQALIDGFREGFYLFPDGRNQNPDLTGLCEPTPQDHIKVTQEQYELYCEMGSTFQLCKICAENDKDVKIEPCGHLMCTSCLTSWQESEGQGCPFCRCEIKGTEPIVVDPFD
# [2] = system: Jurkat (clone E6-1) cells with NFAT luciferase reporter; assay: Jurkat reporter assay (NFAT Luciferase); type: cell-based; conditions: Homo sapiens; Jurkat NFAT luciferase reporter cells, anti-CD3 stimulation, 6 hr; read-out: Jurkat NFAT EC50
# [3] = molecular target: Recombinant human Cbl-b (aa 36-427) (Homo sapiens, UniProt Q13191); assay: Cbl-b Biochemical Assay (TR-FRET); conditions: read-out: TR-FRET hCbl-b IC50
# Sequence of Recombinant human Cbl-b (aa 36-427) (Q13191 36-427): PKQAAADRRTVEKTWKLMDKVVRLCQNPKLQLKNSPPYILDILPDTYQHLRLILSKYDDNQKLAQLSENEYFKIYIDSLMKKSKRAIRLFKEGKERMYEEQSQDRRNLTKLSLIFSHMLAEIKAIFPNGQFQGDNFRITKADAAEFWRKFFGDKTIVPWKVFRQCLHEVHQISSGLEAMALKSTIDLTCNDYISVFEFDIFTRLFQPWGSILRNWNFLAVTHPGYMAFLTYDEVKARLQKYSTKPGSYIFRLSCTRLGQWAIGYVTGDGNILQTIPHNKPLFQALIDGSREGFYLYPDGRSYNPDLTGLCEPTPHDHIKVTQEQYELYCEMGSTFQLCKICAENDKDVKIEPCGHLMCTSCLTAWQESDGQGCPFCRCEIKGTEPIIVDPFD
Structure (SMILES),IC50 [1],EC50 [2],IC50 [3]
"Cn1cnnc1-c1cc(F)ccc1-c1cc(-c2nc3cc(CNCC(C)(C)O)c(F)c(F)c3o2)nc(C2CC2)c1 [AGF-1, 1-{[(2-{6-Cyclopropyl-4-[4-fluoro-2-(4-methyl-1,2,4-triazol-3-yl)phenyl]pyridin-2-yl}-6,7-difluoro-1,3-benzoxazol-5-yl)methyl]amino}-2-methylpropan-2-ol]",< 200 nM,< 200 nM,< 200 nM
"Cn1cnnc1-c1cc(F)ccc1-c1cccc(-c2nc3cc(CN4CC(C)(O)C4)cc(C(F)(F)F)c3[nH]2)c1 [BR-1, 1-((2-(4′-Fluoro-2′-(4-methyl-4H-1,2,4-triazol-3-yl)-[1,1′-biphenyl]-3-yl)-7-(trifluoromethyl)-1H-benzo[d]imidazol-5-yl)methyl)-3-methylazetidin-3-ol]",1000 to 10000 nM,1000 to 10000 nM,< 200 nM
"COC(=O)c1ccc2oc(-c3cc(-c4ccc(F)cc4-c4nncn4C)cc(C4CC4)n3)nc2c1 [ADP-1, Methyl 2-{6-cyclopropyl-4-[4-fluoro-2-(4-methyl-1,2,4-triazol-3-yl)phenyl]pyridin-2-yl}-1,3-benzoxazole-5-carboxylate]",10000 to 50000 nM,10000 to 50000 nM,10000 to 50000 nM
"CC(NCC1(O)CCC1)c1cc(F)c2oc(-c3cc(-c4ccc(F)cc4-c4nncn4C)cc(C4CC4)n3)nc2c1 (stereo in doubt) [AFR-1, 1-({[(1R)-1-(2-{6-Cyclopropyl-4-[4-fluoro-2-(4-methyl-1,2,4-triazol-3-yl)phenyl]pyridin-2-yl}-7-fluoro-1,3-benzoxazol-5-yl)ethyl]amino}methyl)cyclobutan-1-ol]",< 200 nM,< 200 nM,< 200 nM
"COC(=O)c1cc(F)c2oc(-c3cc(-c4ccc(C#N)cc4-c4nncn4C)cc(C4CC4)n3)nc2c1 [AHC-1, methyl 2-{4-[4-cyano-2-(4-methyl-1,2,4-triazol-3-yl)phenyl]-6-cyclopropylpyridin-2-yl}-7-fluoro-1,3-benzoxazole-5-carboxylate]",1000 to 10000 nM,1000 to 10000 nM,200 to 1000 nM
"Cn1cnnc1-c1cc(F)ccc1-c1cccc(-c2nc3cc(CNCC(C)(C)O)cc(C(F)(F)F)c3[nH]2)c1 [BT-1, 1-(((2-(4′-Fluoro-2′-(4-methyl-4H-1,2,4-triazol-3-yl)-[1,1′-biphenyl]-3-yl)-7-(trifluoromethyl)-1H-benzo[d]imidazol-5-yl)methyl)amino)-2-methylpropan-2-ol]",1000 to 10000 nM,200 to 1000 nM,< 200 nM
"Cn1cnnc1-c1cc(F)ccc1-c1cccc(-c2nc3cc(CN4CCC5(CC4)CC5)cc(C(F)(F)F)c3o2)c1 [AG-2, 5-((6-Azaspiro[2.5]octan-6-yl)methyl)-2-(4′-fluoro-2′-(4-methyl-4H-1,2,4-triazol-3-yl)-[1,1′-biphenyl]-3-yl)-7-(trifluoromethyl)benzo[d]oxazole]",1000 to 10000 nM,1000 to 10000 nM,< 200 nM
"Cn1cnnc1-c1cc(F)ccc1-c1cccc(-c2nc3cc(NCCN4CC(F)(F)C4)cc(C(F)(F)F)c3o2)c1 [IF-2, N-(2-(3,3-Difluoroazetidin-1-yl)ethyl)-2-(4′-fluoro-2′-(4-methyl-4H-1,2,4-triazol-3-yl)-[1,1′-biphenyl]-3-yl)-7-(trifluoromethyl)benzo[d]oxazol-5-amine]",200 to 1000 nM,1000 to 10000 nM,< 200 nM
"Cn1cnnc1-c1cc(F)ccc1-c1cccc(-c2nc3cc(CNCC(C)(C)C#N)cc(C(F)(F)F)c3o2)c1 [DN-2, 3-(((2-(4′-fluoro-2′-(4-methyl-4H-1,2,4-triazol-3-yl)-[1,1′-biphenyl]-3-yl)-7-(trifluoromethyl)benzo[d]oxazol-5-yl)methyl)amino)-2,2-dimethylpropanenitrile]",< 200 nM,200 to 1000 nM,< 200 nM
"Cn1cnnc1-c1cc(F)ccc1-c1cc(-c2nc3cc(CNCC4(O)CCC4)cc(C(F)(F)F)c3o2)nc(C2CC2)c1 [ADR-1, 1-((((2-(6-Cyclopropyl-4-(4-fluoro-2-(4-methyl-4H-1,2,4-triazol-3-yl)phenyl)pyridin-2-yl)-7-(trifluoromethyl)benzo[d]oxazol-5-yl)methyl)amino)methyl)cyclobutan-1-ol]",< 200 nM,< 200 nM,< 200 nM
"Cn1cnnc1-c1cc(F)ccc1-c1cc(-c2nc3cc(CNCC4CCC4)cc(F)c3o2)nc(C2CC2)c1 [AGT-1, (Cyclobutylmethyl)[(2-{6-cyclopropyl-4-[4-fluoro-2-(4-methyl-1,2,4-triazol-3-yl)phenyl]pyridin-2-yl}-7-fluoro-1,3-benzoxazol-5-yl)methyl]amine]",< 200 nM,< 200 nM,< 200 nM
"COCC(C)(C)NCc1cc(C)c2oc(-c3cc(-c4ccc(F)cc4-c4nncn4C)cc(C4CC4)n3)nc2c1 [AGJ-1, [(2-{6-Cyclopropyl-4-[4-fluoro-2-(4-methyl-1,2,4-triazol-3-yl)phenyl]pyridin-2-yl}-7-methyl-1,3-benzoxazol-5-yl)methyl](1-methoxy-2-methylpropan-2-yl)amine]",1000 to 10000 nM,200 to 1000 nM,< 200 nM
"Cn1cnnc1-c1cc(F)ccc1-c1cc(-c2nc3cc(CNCC(C)(C)O)cc(C(F)(F)F)c3o2)cc(C2CC2)c1 [JL-1, 1-(((2-(5-Cyclopropyl-4′-fluoro-2′-(4-methyl-4H-1,2,4-triazol-3-yl)-[1,1′-biphenyl]-3-yl)-7-(trifluoromethyl)benzo[d]oxazol-5-yl)methyl)amino)-2-methylpropan-2-ol]",< 200 nM,< 200 nM,< 200 nM
"Cn1cnnc1-c1cc(F)ccc1-c1cc(-c2nc3cc(CNCC4CCC4)cc(F)c3o2)cc(C2CC2)c1 [JO-1, 1-Cyclobutyl-N-((2-(5-cyclopropyl-4′-fluoro-2′-(4-methyl-4H-1,2,4-triazol-3-yl)-[1,1′-biphenyl]-3-yl)-7-fluorobenzo[d]oxazol-5-yl)methyl)methanamine]",< 200 nM,< 200 nM,< 200 nM

# Now from value to compound:
IC50 [1],EC50 [2],IC50 [3],Structure (SMILES)
< 200 nM,200 to 1000 nM,< 200 nM,"Cn1cnnc1-c1cc(F)ccc1-c1cccc(-c2nc3cc(CN[C@@H]4CCC[C@@H]4O)ccc3s2)c1 [ET-8, (1S,2R)-2-(((2-(4′-Fluoro-2′-(4-methyl-4H-1,2,4-triazol-3-yl)-[1,1′-biphenyl]-3-yl)benzo[d]thiazol-5-yl)methyl)amino)cyclopentan-1-ol]"
200 to 1000 nM,200 to 1000 nM,< 200 nM,"COCCNCc1cc2nc(-c3cccc(-c4ccc(F)cc4-c4nncn4C)c3)oc2cc1F [IR-1, N-((6-Fluoro-2-(4′-fluoro-2′-(4-methyl-4H-1,2,4-triazol-3-yl)-[1,1′-biphenyl]-3-yl)benzo[d]oxazol-5-yl)methyl)-2-methoxyethan-1-amine]"
1000 to 10000 nM,1000 to 10000 nM,< 200 nM,"Cn1cnnc1-c1ccccc1-c1cccc(-c2nc3cc(CN[C@@H]4CCC[C@H]4O)cc(C(F)(F)F)c3o2)c1 [Example N-1, (1R,2R)-2-(((2-(2′-(4-Methyl-4H-1,2,4-triazol-3-yl)-[1,1′-biphenyl]-3-yl)-7-(trifluoromethyl)benzo[d]oxazol-5-yl)methyl)amino)cyclopentan-1-ol]"
< 200 nM,< 200 nM,< 200 nM,"Cn1cnnc1-c1cc(F)ccc1-c1cccc(-c2nc3cc(CNC[C@H]4CCCO4)cc(C(F)(F)F)c3o2)c1 [EU-2, (R)-1-(2-(4′-Fluoro-2′-(4-methyl-4H-1,2,4-triazol-3-yl)-[1,1′-biphenyl]-3-yl)-7-(trifluoromethyl)benzo[d]oxazol-5-yl)-N-((tetrahydrofuran-2-yl)methyl)methanamine]"
1000 to 10000 nM,200 to 1000 nM,< 200 nM,"C[C@H]1CCCN(Cc2cc(C(F)(F)F)c3[nH]c(-c4cccc(-c5ccc(F)cc5-c5nncn5C)c4)nc3c2)C1 [BO-2, (S)-2-(4′-Fluoro-2′-(4-methyl-4H-1,2,4-triazol-3-yl)-[1,1′-biphenyl]-3-yl)-5-((3-methylpiperidin-1-yl)methyl)-7-(trifluoromethyl)-1H-benzo[d]imidazole]"
< 200 nM,< 200 nM,< 200 nM,"COc1cc(CNCC2CCCC2)cc2nc(-c3cccc(-c4ccc(F)cc4-c4nncn4C)c3)oc12 [FN-1, 1-Cyclopentyl-N-((2-(4′-fluoro-2′-(4-methyl-4H-1,2,4-triazol-3-yl)-[1,1′-biphenyl]-3-yl)-7-methoxybenzo[d]oxazol-5-yl)methyl)methanamine]"
1000 to 10000 nM,10000 to 50000 nM,200 to 1000 nM,"Cn1cnnc1-c1cc(F)ccc1-c1cccc(-c2nc3cc(N[C@@H]4CCC[C@@H]4O)cc(C(F)(F)F)c3o2)c1 [HV-3, (1S,2R)-2-((2-(4′-Fluoro-2′-(4-methyl-4H-1,2,4-triazol-3-yl)-[1,1′-biphenyl]-3-yl)-7-(trifluoromethyl)benzo[d]oxazol-5-yl)amino)cyclopentan-1-ol]"
< 200 nM,< 200 nM,< 200 nM,"Cn1cnnc1-c1cc(F)ccc1-c1cccc(-c2nc3cc(CN[C@@H]4CCC[C@@]4(O)C(F)(F)F)cc(C(F)(F)F)c3o2)c1 [JI-3, (1S,2R)-2-(((2-(4′-Fluoro-2′-(4-methyl-4H-1,2,4-triazol-3-yl)-[1,1′-biphenyl]-3-yl)-7-(trifluoromethyl)benzo[d]oxazol-5-yl)methyl)amino)-1-(trifluoromethyl)cyclopentan-1-ol]"
